Data from patent US20220071932A1, “Compositions and Methods Against Stress-Induced Affective Disorders and Their Associated Symptoms” (The Trustees of Columbia University in the City of New York, priority 2019, published 2022).

Test system: 129S6/SvEv mice
Experiment: Contextual fear conditioning (CFC), 3-shock; freezing
Type: in vivo
Conditions: for p, Fisher's LSD Saline vs. drug, CFC Re-exposure Freezing Min 1 (%) / p, Fisher's LSD Saline vs. drug, CFC Re-exposure Freezing Min 2 (%) / p, Fisher's LSD Saline vs. drug, CFC Re-exposure Freezing Min 3 (%) / p, Fisher's LSD Saline vs. drug, CFC Re-exposure Freezing Min 4 (%) / p, Fisher's LSD Saline vs. drug, CFC Re-exposure Freezing Min 5 (%) / p, Fisher's LSD Saline vs. drug, CFC Re-exposure Freezing (%): drug 1 week before stress; for p, Fisher's PLSD Saline vs. drug, CFC Re-exposure Freezing Min 1 (%) / p, Fisher's PLSD Saline vs. drug, CFC Re-exposure Freezing Min 2 (%) / p, Fisher's PLSD Saline vs. drug, CFC Re-exposure Freezing Min 3 (%) / p, Fisher's PLSD Saline vs. drug, CFC Re-exposure Freezing Min 4 (%) / p, Fisher's PLSD Saline vs. drug, CFC Re-exposure Freezing Min 5 (%) / p, Fisher's PLSD Saline vs. drug, CFC Re-exposure Freezing (%): drug 5 minutes after stress, FIG. 2C
Method: A 3-shock CFC paradigm was administered as previously described (45, 46). CFC was conducted in chambers obtained from Med Associates (St. Albans, Vt.), with internal dimensions of approximately 20 cm wide×16 cm deep×20.5 cm high. The chambers had metal walls on each side, clear plastic front and back walls and ceilings, and stainless-steel bars on the floor. A house light (CM1820 bulb, 28v, 100 mA) mounted directly above the chamber provided illumination. Each chamber was located inside a larger, insulated, plastic cabinet that provided protection from outside light and noise. Each cabinet contained a ventilation fan that was operated during the sessions. A paper towel dabbed with lemon solution was placed underneath the chamber floor. Mice were held outside the experimental room in their home cages prior to testing and transported to the conditioning apparatus individually in standard mouse cages Chambers were cleaned with 70% EtOH between each set of mice. Mice were placed into the conditioning chamber and received shocks at 180 s, 240 s, and 300 s (2 s duration, 0.75 mA). Fifteen seconds after the last shock, mice were removed from the chamber. Overall, the training session lasted 317 s. […] All sessions were scored for freezing using FreezeFrame4.

[1] = 5 min prior to CFC, (R,S)-ketamine 30 mg/kg, FENM 20 mg/kg, vs saline
[2] = (R,S)-ketamine (30 mg/kg) vs. FENM (20 mg/kg), FIG. 8D

`NC12CC3CC(C1)CC(CCF)(C3)C2` [FENM, 1-amino-3-fluoroethyl-adamantane] was tested, and the “p, Fisher's LSD Saline vs. drug, CFC Re-exposure Freezing Min 1 (%)” value (10 mg/kg, FIG. 1C) was 0.4040, the “p, Fisher's LSD Saline vs. drug, CFC Re-exposure Freezing Min 2 (%)” value (10 mg/kg, FIG. 1C) was 0.0961 and the “p, Fisher's LSD Saline vs. drug, CFC Re-exposure Freezing Min 3 (%)” value (10 mg/kg, FIG. 1C) was 0.5544. For the same compound, the “p, Fisher's LSD Saline vs. drug, CFC Re-exposure Freezing Min 4 (%)” value (10 mg/kg, FIG. 1C) was 0.0419, the “p, Fisher's LSD Saline vs. drug, CFC Re-exposure Freezing Min 5 (%)” value (10 mg/kg, FIG. 1C) was 0.3855 and the “p, Fisher's LSD Saline vs. drug, CFC Re-exposure Freezing (%)” value (10 mg/kg, after ANOVA, FIG. 1D) was 0.1313. For the same compound, the “p, Fisher's LSD Saline vs. drug, CFC Re-exposure Freezing (%)” value (10 mg/kg, after RMANOVA, FIG. 1C) was 0.1313, the “p, Fisher's PLSD Saline vs. drug, CFC Re-exposure Freezing Min 1 (%)” value (10 mg/kg) was 0.1019 and the “p, Fisher's PLSD Saline vs. drug, CFC Re-exposure Freezing Min 2 (%)” value (10 mg/kg) was 0.0359. For the same compound, the “p, Fisher's PLSD Saline vs. drug, CFC Re-exposure Freezing Min 3 (%)” value (10 mg/kg) was 0.0300, the “p, Fisher's PLSD Saline vs. drug, CFC Re-exposure Freezing Min 4 (%)” value (10 mg/kg) was 0.1916 and the “p, Fisher's PLSD Saline vs. drug, CFC Re-exposure Freezing Min 5 (%)” value (10 mg/kg) was 0.6909. The “p, Fisher's PLSD Saline vs. drug, CFC Re-exposure Freezing (%)” value (10 mg/kg, after RMANOVA) was 0.0570, the “p, Fisher's LSD Saline vs. drug, CFC Re-exposure Freezing Min 1 (%)” value (20 mg/kg, FIG. 1C) was 0.2929 and the “p, Fisher's LSD Saline vs. drug, CFC Re-exposure Freezing Min 2 (%)” value (20 mg/kg, FIG. 1C) was 0.0225. The “p, Fisher's LSD Saline vs. drug, CFC Re-exposure Freezing Min 3 (%)” value (20 mg/kg, FIG. 1C) was 0.0834, the “p, Fisher's LSD Saline vs. drug, CFC Re-exposure Freezing Min 4 (%)” value (20 mg/kg, FIG. 1C) was 0.0743 and the “p, Fisher's LSD Saline vs. drug, CFC Re-exposure Freezing Min 5 (%)” value (20 mg/kg, FIG. 1C) was 0.0027. For the same compound, the “p, Fisher's LSD Saline vs. drug, CFC Re-exposure Freezing (%)” value (20 mg/kg, after ANOVA, FIG. 1D) was 0.015, the “p, Fisher's LSD Saline vs. drug, CFC Re-exposure Freezing (%)” value (20 mg/kg, after RMANOVA, FIG. 1C) was 0.0150 and the “p, Fisher's LSD Saline vs. drug, CFC Re-exposure Freezing Min 1 (%)” value (30 mg/kg, FIG. 1C) was 0.0328. For the same compound, the “p, Fisher's LSD Saline vs. drug, CFC Re-exposure Freezing Min 2 (%)” value (30 mg/kg, FIG. 1C) was 0.0080, the “p, Fisher's LSD Saline vs. drug, CFC Re-exposure Freezing Min 3 (%)” value (30 mg/kg, FIG. 1C) was 0.0038 and the “p, Fisher's LSD Saline vs. drug, CFC Re-exposure Freezing Min 4 (%)” value (30 mg/kg, FIG. 1C) was 0.0005. For the same compound, the “p, Fisher's LSD Saline vs. drug, CFC Re-exposure Freezing Min 5 (%)” value (30 mg/kg, FIG. 1C) was 0.0807, the “p, Fisher's LSD Saline vs. drug, CFC Re-exposure Freezing (%)” value (30 mg/kg, after ANOVA, FIG. 1D) was 0.0018 and the “p, Fisher's LSD Saline vs. drug, CFC Re-exposure Freezing (%)” value (30 mg/kg, after RMANOVA, FIG. 1C) was 0.0018. The “p, Fisher's PLSD Saline vs. drug, CFC Re-exposure Freezing Min 1 (%)” value (30 mg/kg) was 0.8647, the “p, Fisher's PLSD Saline vs. drug, CFC Re-exposure Freezing Min 2 (%)” value (30 mg/kg) was 0.4119 and the “p, Fisher's PLSD Saline vs. drug, CFC Re-exposure Freezing Min 3 (%)” value (30 mg/kg) was 0.3540. For the same compound, the “p, Fisher's PLSD Saline vs. drug, CFC Re-exposure Freezing Min 4 (%)” value (30 mg/kg) was 0.0503, the “p, Fisher's PLSD Saline vs. drug, CFC Re-exposure Freezing Min 5 (%)” value (30 mg/kg) was 0.3078 and the “p, Fisher's PLSD Saline vs. drug, CFC Re-exposure Freezing (%)” value (30 mg/kg, after RMANOVA) was 0.2420. The “fear expression during CFC re-exposure” value (1 week prior to CFC, (R,S)-ketamine 30 mg/kg, FENM 20 and 30 mg/kg, vs saline) was “decreased fear expression”, the “fear expression during re-exposure 2” value (5 min after context re-exposure 1 (24 h before re-exposure 2), (R,S)-ketamine 30 mg/kg, FENM 20 mg/kg, vs saline) was “significantly decreased fear expression” and the “fear expression during CFC re-exposure 1” value [1] was “but not FENM significantly decreased”. For the same compound, the “fear expression during CFC re-exposure 2” value [1] was “significantly increased fear expression”, the “freezing during CFC training” value [1] was “but not FENM, increased freezing” and the “CFC Training, Average Freezing, p (Fisher's LSD)” value ((R,S)-ketamine (30 mg/kg) vs. FENM (20 mg/kg), FIG. 8C) was 0.0029. For the same compound, the “CFC Re-exposure 1, Freezing Min 1 (%), p (Fisher's LSD)” value [2] was less than 0.0001, the “CFC Re-exposure 1, Freezing Min 2 (%), p (Fisher's LSD)” value [2] was less than 0.0001 and the “CFC Re-exposure 1, Freezing Min 3 (%), p (Fisher's LSD)” value [2] was less than 0.0001. For the same compound, the “CFC Re-exposure 1, Freezing Min 4 (%), p (Fisher's LSD)” value [2] was less than 0.0001 and the “CFC Re-exposure 1, Freezing Min 5 (%), p (Fisher's LSD)” value [2] was less than 0.0001.
